Series [1] deals with M. tuberculosis. Put plainly: High content assay of intracellular M. tuberculosis growth in infected RAW264.7 macrophages. The series is classed as cell-based, Mycobacterium tuberculosis H37Rv-LP. Conditions: for IC50: Mycobacterium tuberculosis. On the procedure:
Compounds were obtained in 384-well plates as 10 mM DMSO stock solutions and tested as described ([Manning et al., 2017]). Briefly, assay plates were prepared in clear bottom, black 384-well plates with 30 μl cRPMI and 0.6 μl compound in columns 3–22 (final concentration of 10 μM compound, 1% DMSO). […] INH and STA were also included in dose response on each plate. RAW264.7 cells were infected with M. tuberculosis DREAM8 as described ([Manning et al., 2017]) at an MOI of 1 for 24 h and extracellular bacteria removed by washing. Cells were recovered using Accumax, harvested, washed and resuspended in serum-free RPMI; 30 μl of infected cells were dispensed into each well at 3,300 cells/well. Plates were incubated for 72 h, 10 μl of 5X SYBR Green I was added and plates were imaged with an ImageXpress Micro High Content Screening System (Molecular Devices) using a ×4 objective and FITC and Texas Red channels. MetaXpress was used to analyze images. The integrated intensity of M. tuberculosis or macrophages was calculated for each well. Growth inhibition was calculated for each test well by normalizing to the average integrated intensity of the DMSO control wells. IC50 was calculated as the compound concentration required to reduce bacterial growth by 50%. TC50 was calculated as the compound concentration required to reduce macrophage viability by 50%.

Series [2] can be described thus: HepG2 cytotoxicity (CellTiter-Glo, 72 h). Conditions: human. The series is classed as cell-based, human. On the procedure:
(§1) Cytotoxicity against HepG2 cells was measured after 72 h. Cells were seeded in 384-well plates at 1,800 cells per well. Compounds were added as a 10-point three-fold serial dilution after 24 h (final assay concentration of 1% DMSO). CellTiter-Glo® reagent (Promega) was added and relative luminescence units (RLU) measured. Data were normalized to the DMSO controls. Curves were fitted using the Levenberg–Marquardt algorithm; TC50 was calculated as the compound concentration required to reduce cell viability by 50%.
(§2) We further evaluated cytotoxicity using the HepG2 cell line cultured with either glucose or galactose in the medium (Table 2). HepG2 cells cultured with galactose rely on mitochondrial oxidative phosphorylation rather than glycolysis which increases their susceptibility to mitochondrial toxicants allowing us to identify compounds with mitochondrial toxicity ([Kamalian et al., 2015]).

In series [3] the test system is M. tuberculosis. Put plainly: Minimum inhibitory concentration in liquid medium (axenic culture). In kind it is cell-based, Mycobacterium tuberculosis. To be noted: Mycobacterium tuberculosis; for IC50: read-out: Anti-tubercular activity in axenic culture IC50.
For another series, the system named is RAW264.7 cells. Description: Macrophage viability in the same high content assay. To be noted: for Intracellular RAW TC50 / Intracellular activity Cytotoxicity TC50: infected RAW264.7 macrophages; for Intracellular RAW TC50: SAR tables 4-8; for Intracellular activity Cytotoxicity TC50: 72 h.
A further series has as its system HepG2 cells. Put plainly: HepG2 cytotoxicity (CellTiter-Glo, 72 h). In kind it is cell-based, human. Conditions: human, 72 h. On the procedure:
as §1, §2
A general note: Cellular ATP, detected with luciferase, serves as a proxy for viable cell number.

The mark [4] stands for this setting: RAW264.7, in RAW264.7 macrophages, SAR tables 4-8, read-out: Intracellular Mtb IC50.
The mark [5] stands for this setting: HepG2 cytotoxicity IC50 Galactose.
Setting [6] is: HepG2 cytotoxicity IC50 Glucose.
The mark [7] stands for this setting: axenic culture, SAR tables 4-8, read-out: Extracellular IC90.
Setting [8] is: RAW264.7, 72 h, M. tuberculosis in RAW264.7 cells, MOI 1, 72 h, read-out: Intracellular activity Anti-tubercular activity IC50.
Setting [9] is: 120 h, extracellular, 5 days, OD590.
The mark [10] stands for this setting: 120 h, extracellular, 5 days, OD590, read-out: Anti-tubercular activity in axenic culture IC90.

Like-named read-outs stand apart in the source and are kept apart here. Marks after values point to notes of the source that are not given here. A value given as a limit tells only on which side of the number the result lay.

One may read the IC50 as the midpoint of a concentration-inhibition curve. Usually IC90 stands for the point of the concentration-response curve where the effect stands at 90%. Take `O=C(CSc1ccccn1)Nc1ccc(F)c(F)c1` [TPN-0006203]: the “activity against intracellular M. tuberculosis” value in the series with M. tuberculosis [1] is on record as “good intracellular activity”. Further, the IC50 with M. tuberculosis [1] (setting [4]) came out at 7.8 ± 1.6 µM. The concentration for half-maximal inhibition (IC50) at 72 h in series [2] (setting [5]) and in series [2] (setting [6]) was over 100 µM throughout. Moreover, in the series on M. tuberculosis [3] (setting [7]), the IC90 is over 20 µM. The “Intracellular RAW TC50” value with RAW264.7 cells is on record as >100 ^b µM.
Turning to `CCc1ccc(OCC(=O)Nc2cccc3c2C(=O)OC3)cc1` [TPN-0006204], the IC50 with M. tuberculosis [1] (setting [8]) was 11 ± 0.5 µM; in the series on M. tuberculosis [1] (setting [4]) it was 10 ± 0.5 µM; with M. tuberculosis [3] (setting [9]), over 20 µM. Also, the IC50 at 72 h amounted to 47 ± 17 µM in series [2] (setting [5]) and 59 ± 10 µM in series [2] (setting [6]). In addition, the “HepG2 cytotoxicity TC50 Galactose” value in the series with HepG2 cells is recorded as 47 ± 17 ^e µM. In addition, the “HepG2 cytotoxicity TC50 Glucose” value in the series on HepG2 cells was 59 ± 10 ^d µM. Besides, the concentration for an effect of 90% (IC90) in the series with M. tuberculosis [3] (setting [10]) and with M. tuberculosis [3] (setting [7]) was over 20 µM throughout. The “Intracellular activity Cytotoxicity TC50” value in the series on RAW264.7 cells is given as >100 ^b µM. In addition, the “Intracellular RAW TC50” value in the series on RAW264.7 cells is reported as >100 ^a µM.
`O=C(CSc1ccccc1)Nc1ccc(Br)cc1` [TPN-0006205]: the “activity against intracellular M. tuberculosis” value in the series with M. tuberculosis [1] is given as “good intracellular activity”. Moreover, the IC50 in the series on M. tuberculosis [1] (setting [8]) is 1.4 ± 0.64 µM; in the series on M. tuberculosis [1] (setting [4]), 1.4 ± 0.6 µM; in the series on M. tuberculosis [3] (setting [9]), over 20 µM. Moreover, the IC50 at 72 h in series [2] (setting [5]) and in series [2] (setting [6]) was over 100 µM in each case. In addition, the “HepG2 cytotoxicity TC50 Galactose” value in the series with HepG2 cells is listed as >100 ^c µM. In addition, the “HepG2 cytotoxicity TC50 Glucose” value with HepG2 cells was >100 ^e µM. Further, the IC90 in the series with M. tuberculosis [3] (setting [10]) and with M. tuberculosis [3] (setting [7]) was over 20 µM in each case. Also, the “Intracellular activity Cytotoxicity TC50” value in the series on RAW264.7 cells was 57 ± 23 ^c µM. The “Intracellular RAW TC50” value with RAW264.7 cells is reported as 57 ± 24 ^c µM. In the series on RAW264.7 cells (macrophage TC50 / intracellular IC50), the “selectivity index (TC50/IC50)” value is reported as 40.
In turn, `Cc1ccc(OCC(=O)Nc2ccc(N3CCCCC3)c(Cl)c2)cc1` [TPN-0006206] displayed an IC50 at 72 h in series [2] (setting [5]) of over 100 µM. For the same compound, the IC50 at 72 h in series [2] (setting [6]) is over 100 µM. For the same compound, in the series on HepG2 cells, the “HepG2 cytotoxicity TC50 Galactose” value is >100 ^b µM and the “HepG2 cytotoxicity TC50 Glucose” value was >100 ^b µM. The IC50 with M. tuberculosis [3] (setting [9]) is over 20 µM. The concentration for an effect of 90% (IC90) in the series with M. tuberculosis [3] (setting [10]) is over 20 µM. Also, in the series with M. tuberculosis [3] (setting [7]), the IC90 was over 20 µM. Also, in the series with RAW264.7 cells, the “Intracellular activity Cytotoxicity TC50” value is reported as 57 ± 20 ^b µM and the “Intracellular RAW TC50” value is 57 ± 20 ^c µM.
Take `O=C(COc1ccc(Cl)cc1)Nc1ccc(N2CCCCC2)c(Cl)c1` [TPN-0006209]: the IC50 at 72 h in series [2] (setting [5]) is over 100 µM. In series [2] (setting [6]), this compound registered an IC50 at 72 h of over 100 µM. Further, in the series on HepG2 cells, the “HepG2 cytotoxicity TC50 Galactose” value is recorded as >100 ^b µM and the “HepG2 cytotoxicity TC50 Glucose” value is recorded as >100 ^b µM. Also, the IC50 in the series on M. tuberculosis [3] (setting [9]) was over 20 µM. For the same compound, the IC90 with M. tuberculosis [3] (setting [10]) was over 20 µM. Besides, in the series with M. tuberculosis [3] (setting [7]), the IC90 was over 20 µM. Further, in the series on RAW264.7 cells, the “Intracellular activity Cytotoxicity TC50” value is 68 ± 0.50 ^b µM and the “Intracellular RAW TC50” value is 68 ± 0.5 ^b µM.
As to `O=C(COc1ccc2ccccc2c1)Nc1ccncc1` [TPN-0006212], the IC50 in the series with M. tuberculosis [1] (setting [4]) turned out to be 8.2 ± 1.7 µM. The IC50 at 72 h in series [2] (setting [5]) is 61 ± 4 µM; in series [2] (setting [6]), over 100 µM. Also, the IC90 in the series on M. tuberculosis [3] (setting [7]) was over 20 µM. The “Intracellular RAW TC50” value with RAW264.7 cells was >100 ^b µM.
The corresponding values for `Cc1cc(OCC(=O)N2CCC(C)CC2)ccc1Br` [TPN-0006213] are 6.6 ± 1.6 µM, 55 ± 5 µM, 93 ± 3.5 µM, over 20 µM and 75 ± 16 ^b µM.
`O=C(COc1ccc(Br)cc1)N1CCN(c2ccccc2F)CC1` [TPN-0006215]: in the series on M. tuberculosis [1] (setting [4]), the concentration for half-maximal inhibition (IC50) is 12 ± 1.6 µM. The IC50 at 72 h in series [2] (setting [5]) stood at 57 ± 3 µM; in series [2] (setting [6]), 96 ± 2.5 µM. Further, the 90% effect concentration (IC90) in the series with M. tuberculosis [3] (setting [7]) is over 20 µM. In addition, the “Intracellular RAW TC50” value in the series on RAW264.7 cells is on record as 60 ± 27 ^b µM.
For the compound `COCc1cc(C)nc2sc(C(=O)Nc3cccc(Cl)c3)c(N)c12` [TPN-0073022], the “activity against intracellular M. tuberculosis” value in the series with M. tuberculosis [1] is listed as “not active”. Besides, the half-inhibitory concentration (IC50) in the series with M. tuberculosis [1] (setting [4]) was over 100 µM. In addition, the IC50 at 72 h in series [2] (setting [5]) was found to be 64 µM; in series [2] (setting [6]), 51 µM. Further, in the series with M. tuberculosis [3] (setting [7]), the IC90 was over 20 µM. For the same compound, the “Intracellular RAW TC50” value in the series on RAW264.7 cells is 15 ± 9 ^b µM.

For the origin of these results see publication PMC8762250, “Identification of Novel Chemical Scaffolds that Inhibit the Growth of Mycobacterium tuberculosis in Macrophages” (Frontiers in Pharmacology, 2022).
